Patent US10882871B2, “18/19F-labelled compounds which target the prostate specific membrane antigen” (BRITISH COLUMBIA CANCER AGENCY BRANCH, priority 2016, dated 2021)

How the values were obtained:
[1] = test system: PSMA-expressing prostate cancer; conditions: clinical trials, PSMA-expressing prostate cancer patients; cited from earlier work
[2] = test system: PSMA-expressing LNCAP cancer xenografts; assay: Biodistribution and tumor-to-background contrast ratios of 18F-labeled tracers; assay type: in vivo, mouse (NODSCID 1L2RγKO male mice)
Procedure: LNCap cell line was obtained from ATCC (LNCaP clone FGC, CRL-1740). It was established from a metastatic site of left supraclavicular lymph node of human prostatic adenocarcinoma. Cells were cultured in PRMI 1640 medium supplemented with 10% FBS, penicillin (100 U/mL) and streptomycin (100 μg/mL) at 37° C. in a humidified incubator containing 5% CO2. Cells grown to 80-90% confluence were then washed with sterile phosphate-buffered saline (1×PBS pH 7.4) and trypsinization. The collected cells number was counted with a Hausser Scientific (Horsham, Pa.) Hemacytometer.
Imaging and biodistribution experiments were performed using NODSCID 1L2RγKO male mice. Mice were anesthetized by inhalation with 2% isoflurane in oxygen, and implanted subcutaneously with 1×10^7 LNCaP cells behind left shoulder. Mice were imaged or used in biodistribution studies when the tumor grew up to reach 5-8 mm in diameter during 5-6 weeks.
PET imaging experiments were conducted using Siemens Inveon micro PET/CT scanner. Each tumor bearing mouse was injected 6-8 MBq of F-18 labeled tracer through the tail vein under anesthesia (2% isoflurane in oxygen). The mice were allowed to recover and roam freely in their cage. After 50 min, the mice were sedated again with 2% isoflurane in oxygen inhalation and positioned in the scanner. A 10-min CT scan was conducted first for localization and attenuation correction after segmentation for reconstructing the PET images. Then, a 10-min static PET imaging was performed to determined uptake in tumor and other organs. The mice were kept warm by a heating pad during acquisition. For imaging studies acquired at 2 h post-injection (p.i.), the mice were placed in the micro PET/CT scanner at 110 min p.i. Then, the CT and PET acquisitions were conducted as described above.
For biodistribution studies, the mice were injected with the radiotracer as described above. At predetermined time points (1 or 2 h), the mice was anesthetized with 2% isoflurane inhalation, and euthanized by CO2 inhalation. Blood was withdrawn immediately from the heart, and the organs/tissues of interest were collected. The collected organs/tissues were weighed and counted using an automatic gamma counter. The uptake in each organ/tissue was normalized to the injected dose using a standard curve, and expressed as the percentage of the injected dose per gram of tissue (% ID/g).

SMILES | Biodistribution Adrenal glands ([2]; 1 h) | Biodistribution Blood ([2]; 1 h) | Biodistribution Bone ([2]; 1 h) | Biodistribution Brain ([2]; 1 h) | Biodistribution Fat ([2]; 1 h) | Biodistribution Heart ([2]; 1 h) | Biodistribution Intestine ([2]; 1 h) | Biodistribution Kidneys ([2]; 1 h) | Biodistribution Liver ([2]; 1 h) | Biodistribution Lungs ([2]; 1 h) | Biodistribution Muscle ([2]; 1 h) | Biodistribution Pancreas ([2]; 1 h) | Biodistribution Spleen ([2]; 1 h) | Biodistribution Stomach ([2]; 1 h) | Biodistribution Testes ([2]; 1 h) | Biodistribution Tumor ([2]; 1 h) | Tumor:Blood contrast ratio ([2]; 1 h) | Tumor:Muscle contrast ratio ([2]; 1 h) | Tumor:kidney contrast ratio ([2]; 1 h) | also measured
O=C([O-])CN1CCN(CC(=O)[O-])CCN(CC(=O)NCC2CCC(C(=O)N[C@@H](Cc3ccc4ccccc4c3)C(=O)NCCCC[C@H](NC(=O)N[C@@H](CCC(=O)O)C(=O)O)C(=O)O)CC2)CCN(CC(=O)[O-])CC1.[177Lu+3] (stereo partly shown) [PSMA-617 radiolabeled with Lu-177] |  |  |  |  |  |  |  |  |  |  |  |  |  |  |  |  |  |  |  | positive response [1]: > 50%
O=C(O)CC[C@H](NC(=O)N[C@@H](CCCCNC(=O)c1ccc(Cn2cc(C[n+]3ccc([B-](F)(F)[18F])cc3)nn2)nc1)C(=O)O)C(=O)O [^18F-PSMA PyrBF3] | 6.66 ± 2.33 % ID/g | 0.74 ± 0.15 % ID/g | 0.76 ± 0.57 % ID/g | 0.05 ± 0.01 % ID/g | 1.05 ± 0.49 % ID/g | 0.34 ± 0.08 % ID/g | 0.48 ± 0.22 % ID/g | 164 ± 50.2 % ID/g | 1.28 ± 0.18 % ID/g | 1.67 ± 0.47 % ID/g | 0.28 ± 0.07 % ID/g | 0.68 ± 0.50 % ID/g | 3.36 ± 1.08 % ID/g | 0.15 ± 0.03 % ID/g | 0.67 ± 0.27 % ID/g | 6.26 ± 0.82 % ID/g | 8.67 ± 1.74 | 23.5 ± 5.00 | 0.04 ± 0.02 | 
O=C(O)CC[C@H](NC(=O)N[C@@H](CCCCNC(=O)[C@H](Cc1ccc2ccccc2c1)NC(=O)[C@H]1CC[C@H](CNC(=O)Cn2cc(C[n+]3ccc([B-](F)(F)[18F])cc3)nn2)CC1)C(=O)O)C(=O)O [^18F-PSMA-617-PyrBF3] | 2.02 ± 0.56 % ID/g | 1.45 ± 1.15 % ID/g | 0.54 ± 0.14 % ID/g | 0.03 ± 0.00 % ID/g | 0.42 ± 0.30 % ID/g | 0.25 ± 0.06 % ID/g | 20.8 ± 4.79 % ID/g | 83.5 ± 35.7 % ID/g | 1.10 ± 0.28 % ID/g | 1.06 ± 0.23 % ID/g | 0.18 ± 0.03 % ID/g | 0.26 ± 0.08 % ID/g | 2.84 ± 1.51 % ID/g | 0.98 ± 0.12 % ID/g | 0.39 ± 0.13 % ID/g | 23.1 ± 8.26 % ID/g | 35.4 ± 27.6 | 145 ± 57.0 | 0.32 ± 0.11 | 

Continued, in another order:

Biodistribution Adrenal glands ([2]; 1 h) | Biodistribution Blood ([2]; 1 h) | Biodistribution Bone ([2]; 1 h) | Biodistribution Brain ([2]; 1 h) | Biodistribution Fat ([2]; 1 h) | Biodistribution Heart ([2]; 1 h) | Biodistribution Intestine ([2]; 1 h) | Biodistribution Kidneys ([2]; 1 h) | Biodistribution Liver ([2]; 1 h) | Biodistribution Lungs ([2]; 1 h) | Biodistribution Muscle ([2]; 1 h) | Biodistribution Pancreas ([2]; 1 h) | Biodistribution Spleen ([2]; 1 h) | Biodistribution Stomach ([2]; 1 h) | Biodistribution Testes ([2]; 1 h) | Biodistribution Tumor ([2]; 1 h) | Tumor:Blood contrast ratio ([2]; 1 h) | Tumor:Muscle contrast ratio ([2]; 1 h) | Tumor:kidney contrast ratio ([2]; 1 h) | SMILES | also measured
1.46 ± 0.56 % ID/g | 0.58 ± 0.09 % ID/g | 0.22 ± 0.05 % ID/g | 0.04 ± 0.01 % ID/g | 0.39 ± 0.14 % ID/g | 0.21 ± 0.05 % ID/g | 0.31 ± 0.01 % ID/g | 63.3 ± 13.5 % ID/g | 1.26 ± 0.27 % ID/g | 0.75 ± 0.10 % ID/g | 0.20 ± 0.07 % ID/g | 0.31 ± 0.11 % ID/g | 0.95 ± 0.56 % ID/g | 0.09 ± 0.03 % ID/g | 0.30 ± 0.05 % ID/g | 4.44 ± 1.11 % ID/g | 7.60 ± 1.33 | 24.1 ± 8.79 | 0.07 ± 0.02 | C[N+](C)(Cc1cn(Cc2ccc(C(=O)NCCCC[C@H](NC(=O)N[C@@H](CCC(=O)O)C(=O)O)C(=O)O)cn2)nn1)C[B-](F)(F)[18F] [^18F-HTK01130] | Biodistribution Adrenal glands ([2]; 2 h): 1.08 ± 0.51 % ID/g; Biodistribution Blood ([2]; 2 h): 0.21 ± 0.10 % ID/g; Biodistribution Bone ([2]; 2 h): 0.20 ± 0.09 % ID/g; Biodistribution Brain ([2]; 2 h): 0.03 ± 0.01 % ID/g; Biodistribution Fat ([2]; 2 h): 0.32 ± 0.30 % ID/g; Biodistribution Heart ([2]; 2 h): 0.10 ± 0.04 % ID/g; Biodistribution Intestine ([2]; 2 h): 0.24 ± 0.11 % ID/g; Biodistribution Kidneys ([2]; 2 h): 48.2 ± 24.6 % ID/g; Biodistribution Liver ([2]; 2 h): 1.20 ± 0.30 % ID/g; Biodistribution Lungs ([2]; 2 h): 0.30 ± 0.10 % ID/g; Biodistribution Muscle ([2]; 2 h): 0.08 ± 0.03 % ID/g; Biodistribution Pancreas ([2]; 2 h): 0.20 ± 0.18 % ID/g; Biodistribution Spleen ([2]; 2 h): 0.39 ± 0.35 % ID/g; Biodistribution Stomach ([2]; 2 h): 0.05 ± 0.03 % ID/g; Biodistribution Testes ([2]; 2 h): 0.16 ± 0.10 % ID/g; Biodistribution Tumor ([2]; 2 h): 4.27 ± 0.65 % ID/g; Tumor:Blood contrast ratio ([2]; 2 h): 7.60 ± 1.33; Tumor:Muscle contrast ratio ([2]; 2 h): 24.1 ± 8.79; Tumor:kidney contrast ratio ([2]; 2 h): 0.07 ± 0.02
0.81 ± 0.25 % ID/g | 0.13 ± 0.08 % ID/g | 0.10 ± 0.07 % ID/g | 0.01 ± 0.01 % ID/g | 0.27 ± 0.14 % ID/g | 0.07 ± 0.02 % ID/g | 22.2 ± 2.79 % ID/g | 29.9 ± 25.0 % ID/g | 0.83 ± 0.34 % ID/g | 0.40 ± 0.13 % ID/g | 0.05 ± 0.01 % ID/g | 0.13 ± 0.11 % ID/g | 0.75 ± 0.36 % ID/g | 0.21 ± 0.12 % ID/g | 0.18 ± 0.05 % ID/g | 5.09 ± 1.10 % ID/g | 54.6 ± 38.5 | 117 ± 52.1 | 0.28 ± 0.22 | C[N+](C)(Cc1cn(CC(=O)NCCOCCOCCC(=O)N[C@@H](Cc2ccc3ccccc3c2)C(=O)NCCCC[C@H](NC(=O)N[C@@H](CCC(=O)O)C(=O)O)C(=O)O)nn1)C[B-](F)(F)[18F] [^18F-HTK01146] | 
2.89 ± 1.94 % ID/g | 0.89 ± 0.42 % ID/g | 0.34 ± 0.14 % ID/g | 0.04 ± 0.01 % ID/g | 0.83 ± 0.33 % ID/g | 0.31 ± 0.11 % ID/g | 13.0 ± 4.61 % ID/g | 73.9 ± 35.2 % ID/g | 1.14 ± 0.48 % ID/g | 1.21 ± 0.48 % ID/g | 0.36 ± 0.18 % ID/g | 0.30 ± 0.17 % ID/g | 2.67 ± 0.98 % ID/g | 0.37 ± 0.45 % ID/g | 0.74 ± 0.55 % ID/g | 14.0 ± 5.20 % ID/g | 17.1 ± 5.40 | 49.7 ± 28.5 | 0.21 ± 0.08 | C[N+](C)(Cc1cn(CC(=O)NC[C@H]2CC[C@H](C(=O)N[C@@H](Cc3ccc4ccccc4c3)C(=O)NCCCC[C@H](NC(=O)N[C@@H](CCC(=O)O)C(=O)O)C(=O)O)CC2)nn1)C[B-](F)(F)[18F] [^18F-HTK01157] | 
